Results as given in ChEMBL document CHEMBL4196036, “Benzomorphan scaffold for opioid analgesics and pharmacological tools development: A comprehensive review” (Eur J Med Chem, 2018).

How the values were obtained:
Mus musculus [1] = organism: Mus musculus; test: Antinociceptive activity in mouse by paraphenylquinone assay; type: functional
Mus musculus [2] = test: Analgesic activity in sc dosed ICR mouse after 30 mins by hot plate test; type: functional; settings: 0.5 h
Mu-type opioid receptor [3] = target: Mu-type opioid receptor (Macaca mulatta, UniProt Q9MYW9); test: Displacement of [3H]DAMGO from MOR in monkey brain cortex membranes; type: cell membranes
Sequence of Mu-type opioid receptor (Macaca mulatta, UniProt Q9MYW9) (Q9MYW9 whole entry): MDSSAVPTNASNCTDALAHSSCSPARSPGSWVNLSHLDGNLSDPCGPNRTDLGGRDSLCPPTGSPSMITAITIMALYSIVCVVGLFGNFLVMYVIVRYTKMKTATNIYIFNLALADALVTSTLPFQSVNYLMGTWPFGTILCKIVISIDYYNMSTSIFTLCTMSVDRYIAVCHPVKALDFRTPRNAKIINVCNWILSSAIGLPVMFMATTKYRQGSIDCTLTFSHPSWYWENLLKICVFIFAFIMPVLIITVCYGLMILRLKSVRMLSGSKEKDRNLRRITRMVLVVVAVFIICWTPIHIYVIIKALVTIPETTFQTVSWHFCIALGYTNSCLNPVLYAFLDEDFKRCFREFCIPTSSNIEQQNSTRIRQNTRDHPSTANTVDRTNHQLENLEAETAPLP

[4] = target: G_PROTEIN_RECEP_F1_2 domain-containing protein (Macaca mulatta, UniProt F7HEV7); test: Displacement of [3H]naltrindole from DOR in monkey brain cortex membranes; type: cell membranes
Sequence of G_PROTEIN_RECEP_F1_2 domain-containing protein (Macaca mulatta, UniProt F7HEV7) (F7HEV7 whole entry): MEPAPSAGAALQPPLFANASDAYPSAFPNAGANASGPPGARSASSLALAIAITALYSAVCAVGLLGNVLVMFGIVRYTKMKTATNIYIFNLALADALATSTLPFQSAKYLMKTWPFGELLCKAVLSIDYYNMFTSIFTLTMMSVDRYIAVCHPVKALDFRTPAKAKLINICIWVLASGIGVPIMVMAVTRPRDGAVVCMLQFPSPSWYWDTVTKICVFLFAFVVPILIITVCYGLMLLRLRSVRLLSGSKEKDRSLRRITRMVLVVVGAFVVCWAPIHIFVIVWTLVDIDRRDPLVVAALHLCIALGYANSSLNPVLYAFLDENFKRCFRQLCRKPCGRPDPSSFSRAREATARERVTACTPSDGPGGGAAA

Mus musculus [5] = test: Antinociceptive activity in sc dosed ICR mouse after 20 mins by tail flick test; type: functional
[6] = target: Kappa-type opioid receptor (Macaca mulatta, UniProt H9FL65); test: Displacement of [3H]U69,593 from KOR in monkey brain cortex membranes; type: cell membranes
Sequence of Kappa-type opioid receptor (Macaca mulatta, UniProt H9FL65) (H9FL65 whole entry): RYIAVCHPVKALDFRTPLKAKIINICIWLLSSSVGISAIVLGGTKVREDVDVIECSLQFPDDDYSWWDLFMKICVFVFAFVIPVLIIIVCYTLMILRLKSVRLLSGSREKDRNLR

[7] = target: T1, G_PROTEIN_RECEP_F1_2 domain-containing protein (Cavia porcellus, UniProt A0A286XTF2); test: Displacement of [3H]Naltrindole from DOR in guinea pig brain membranes after 3 hrs by scintillation counting method; type: cell membranes, Membrane
T1 sequence (A0A286XTF2 whole entry): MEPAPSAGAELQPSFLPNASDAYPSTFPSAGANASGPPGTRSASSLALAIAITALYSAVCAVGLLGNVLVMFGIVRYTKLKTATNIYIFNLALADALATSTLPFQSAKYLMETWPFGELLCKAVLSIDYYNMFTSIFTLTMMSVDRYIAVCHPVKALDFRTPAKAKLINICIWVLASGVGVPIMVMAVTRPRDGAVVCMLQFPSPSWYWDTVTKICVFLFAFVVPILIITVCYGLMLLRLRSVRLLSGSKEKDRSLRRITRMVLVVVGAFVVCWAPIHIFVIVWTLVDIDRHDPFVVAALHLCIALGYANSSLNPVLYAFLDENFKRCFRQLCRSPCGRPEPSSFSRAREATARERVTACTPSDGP

[8] = target: T2, Kappa-type opioid receptor (Cavia porcellus, UniProt P41144); test: Displacement of [3H]U69,593 from KOR in guinea pig brain membranes after 60 mins by scintillation counting method; type: cell membranes, Membrane
T2 sequence (P41144 whole entry): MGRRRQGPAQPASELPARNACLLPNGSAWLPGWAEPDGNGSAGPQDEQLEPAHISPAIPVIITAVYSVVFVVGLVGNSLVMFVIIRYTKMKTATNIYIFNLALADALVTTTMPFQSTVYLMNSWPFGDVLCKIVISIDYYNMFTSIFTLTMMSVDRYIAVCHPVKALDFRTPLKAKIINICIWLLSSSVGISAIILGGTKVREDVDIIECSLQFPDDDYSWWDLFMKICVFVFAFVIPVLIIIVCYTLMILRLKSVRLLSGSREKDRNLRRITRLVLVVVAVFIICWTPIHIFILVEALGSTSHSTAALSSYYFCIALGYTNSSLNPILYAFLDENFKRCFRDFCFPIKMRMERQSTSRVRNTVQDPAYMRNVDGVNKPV

[9] = target: T3, Delta-type opioid receptor (Homo sapiens, UniProt P41143); test: Binding affinity to DOR (unknown origin)
T3 sequence (P41143 whole entry): as the sequence (F7HEV7 whole entry) above, with A10E, F27C, N29S, K112E, I179V counted along it

Mu-type opioid receptor [10] = target: T4, Mu-type opioid receptor (Homo sapiens, UniProt P35372); test: Binding affinity to MOR (unknown origin)
T4 sequence (P35372 whole entry): as the sequence (Q9MYW9 whole entry) above, with V6A, H19Y, R26P, V119A, S154F, S227T, I293V, D344N counted along it

[11] = target: T3, Delta-type opioid receptor; test: Displacement of [3H]naltrindole from DOR (unknown origin) expressed in CHO cell membranes
[12] = target: T5, Kappa-type opioid receptor (Homo sapiens, UniProt P41145); test: Displacement of [3H]U69,593 from KOR (unknown origin) expressed in CHO cell membranes
T5 sequence (P41145 whole entry): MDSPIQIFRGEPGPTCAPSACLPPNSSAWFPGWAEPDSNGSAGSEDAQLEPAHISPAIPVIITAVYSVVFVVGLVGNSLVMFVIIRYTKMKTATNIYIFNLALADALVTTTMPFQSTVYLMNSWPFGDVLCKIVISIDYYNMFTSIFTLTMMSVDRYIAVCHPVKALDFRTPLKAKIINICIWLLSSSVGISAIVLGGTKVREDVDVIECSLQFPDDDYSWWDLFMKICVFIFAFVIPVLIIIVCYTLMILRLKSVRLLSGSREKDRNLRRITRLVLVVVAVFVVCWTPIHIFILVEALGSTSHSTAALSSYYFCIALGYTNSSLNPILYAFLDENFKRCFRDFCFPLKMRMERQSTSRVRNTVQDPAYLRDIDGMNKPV

Mu-type opioid receptor [13] = target: T4, Mu-type opioid receptor; test: Displacement of [3H]DAMGO from MOR (unknown origin) expressed in CHO cell membranes
[14] = target: T2, Kappa-type opioid receptor; test: Displacement of [3H]U69,593 from KOR in guinea pig brain membranes; type: cell membranes, Membrane
Mu-type opioid receptor [15] = target: T6, Mu-type opioid receptor (Cavia porcellus, UniProt P97266); test: Displacement of [3H]DAMGO from MOR in guinea pig brain membranes; type: cell membranes, Membrane
T6 sequence (P97266 whole entry): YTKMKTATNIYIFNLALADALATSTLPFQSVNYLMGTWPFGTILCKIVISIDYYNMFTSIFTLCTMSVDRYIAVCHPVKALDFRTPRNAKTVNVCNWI

[16] = target: T1, G_PROTEIN_RECEP_F1_2 domain-containing protein; test: Displacement of [3H]Naltrindole from DOR in guinea pig brain membranes; type: cell membranes, Membrane
Mu-type opioid receptor [17] = target: T6, Mu-type opioid receptor; test: Displacement of [3H]DAMGO from MOR in guinea pig brain membranes after 60 mins by scintillation counting method; type: cell membranes, Membrane
[18] = target: T5, Kappa-type opioid receptor; test: Agonist activity at human KOR expressed in HEK293 cell membranes assessed as stimulation of [35S]GTPgammaS binding after 30 mins by scintillation counting method; type: functional
[19] = target: T5, Kappa-type opioid receptor; test: Agonist activity at human KOR expressed in HEK293 cell membranes assessed as stimulation of [35S]GTPgammaS binding after 30 mins by scintillation counting method relative to control; type: functional
Mu-type opioid receptor [20] = target: T4, Mu-type opioid receptor; test: Displacement of [3H]-diprenorphine from MOR (unknown origin) after 1 to 2 hrs by scintillation counting method
[21] = target: T5, Kappa-type opioid receptor; test: Displacement of [3H]U69,593 from human KOR expressed in HEK293 cell membranes after 1 hr by scintillation counting method
Homo sapiens [22] = organism: Homo sapiens; test: Selectivity ratio of Ki for MOR (unknown origin) to Ki for KOR (unknown origin)
[23] = target: T5, Kappa-type opioid receptor; test: Binding affinity to KOR (unknown origin)
Mus musculus [24] = test: Antinociceptive activity in sc dosed mouse by abdominal constriction assay; type: functional
Homo sapiens [25] = organism: Homo sapiens; test: Selectivity ratio of Ki for DOR (unknown origin) to Ki for KOR (unknown origin)
Mus musculus [26] = test: Antinociceptive activity in sc dosed mouse assessed as inhibition of PPQ-induced stretching response pretreated for 10 mins followed by PPQ treatment measured for 1 min at 10 to 15 mins post PPQ treatment; type: functional

Question: What does the source list for `C#CCCN1CC[C@]2(C)c3cc(O)ccc3C[C@@H]1[C@@H]2C`?
Answer: ED50 (Mus musculus [1]): 0.1 mg/kg; ED50 (Mus musculus [2]): 0.04 mg/kg; Ki (Mu-type opioid receptor [3]): 4.6 nM; Ki [4]: 10 nM; ED50 (Mus musculus [5]): 0.05 mg/kg; Ki [6]: 1.4 nM

Question: With `C[C@H]1[C@H]2Cc3ccc(O)cc3[C@@]1(C)CCN2CC1CC1` as the compound, how does the Ki [7] read?
Answer: 0.58 nM

Question: What about the Ki [8] of the same compound?
Answer: 0.052 nM

Question: Which Ki [7] does the source give for `CC1C2Cc3ccc(C(N)=O)cc3C1(C)CCN2CC1CC1` (racemic) here?
Answer: 8.3 nM

Question: For `C[C@H]1[C@H]2Cc3ccc(N)cc3[C@@]1(C)CCN2CC1CC1`, which Ki [7] is on record?
Answer: 12 nM

Question: Which results are given for `CCC12CCN(CC3CC3)C(C(=O)c3ccc(O)cc31)C2C` (racemic)?
Answer: Ki [7]: 3.4 nM; Ki [9]: 3.4 nM; Ki (Mu-type opioid receptor [10]): 0.78 nM

Question: How did the ED50 (Mus musculus [1]) turn out when `C[C@H]1[C@H]2Cc3ccc(O)cc3[C@@]1(C)CCN2CCC#N` was run?
Answer: 0.05 mg/kg

Question: And the ED50 (Mus musculus [2])?
Answer: 0.1 mg/kg

Question: And the Ki (Mu-type opioid receptor [3])?
Answer: 9.8 nM

Question: And the Ki [4]?
Answer: 4.2 nM

Question: And the ED50 (Mus musculus [5])?
Answer: 0.3 mg/kg

Question: And the Ki [6]?
Answer: 0.4 nM

Question: `C[C@H]1[C@H]2Cc3ccc(Nc4ccccc4)cc3[C@@]1(C)CCN2CC1CC1` was tested. Which Ki [7] did it give?
Answer: 5.2 nM

Question: With `C[C@H]1[C@H]2Cc3cc4sc(N)nc4cc3[C@@]1(C)CCN2CC1CC1` as the compound, how does the Ki [11] read?
Answer: 940 nM

Question: And the Ki [12]?
Answer: 6.7 nM

Question: And the Ki (Mu-type opioid receptor [13])?
Answer: 48 nM

Question: With `C=CCCN1CC[C@]2(C)c3cc(O)ccc3C[C@@H]1[C@@H]2C` as the compound, how does the ED50 (Mus musculus [1]) read?
Answer: 0.8 mg/kg

Question: What about the ED50 (Mus musculus [2]) of the same compound?
Answer: 0.3 mg/kg

Question: What about the Ki (Mu-type opioid receptor [3]) of the same compound?
Answer: 2.1 nM

Question: And the Ki [4]?
Answer: 21 nM

Question: And the ED50 (Mus musculus [5])?
Answer: 0.05 mg/kg

Question: And the Ki [6]?
Answer: 1.3 nM

Question: `C[C@H]1[C@H]2Cc3ccc(O)cc3[C@@]1(C)CCN2C[C@@H]1CCCO1` was tested. Which Ki [7] did it give?
Answer: 2.5 nM

Question: What does the source list for `C[C@H]1[C@H]2Cc3ccc(NC=O)cc3[C@]1(C)CCN2CC1CC1`?
Answer: Ki [14]: 0.49 nM; Ki (Mu-type opioid receptor [15]): 1.1 nM; Ki [16]: 9.8 nM

Question: How did the Ki (Mu-type opioid receptor [17]) turn out when `CC1C2Cc3ccc(Nc4cccnc4)cc3C1(C)CCN2CC1CC1` (racemic) was run?
Answer: 0.64 nM

Question: What about the Ki [7] of the same compound?
Answer: 21 nM

Question: What about the Ki [8] of the same compound?
Answer: 0.5 nM

Question: How did the Ki (Mu-type opioid receptor [17]) turn out when `COc1ccc(Nc2ccc3c(c2)C2(C)CCN(CC4CC4)C(C3)C2C)cc1` (racemic) was run?
Answer: 0.47 nM

Question: What about the Ki [7] of the same compound?
Answer: 8.3 nM

Question: And the Ki [8]?
Answer: 0.29 nM

Question: What does the source list for `C=CCN1CC[C@]2(C)c3cc(O)ccc3C[C@@H]1[C@@H]2C`?
Answer: ED50 (Mus musculus [1]): 0.1 mg/kg; Ki (Mu-type opioid receptor [3]): 0.9 nM; Ki [4]: 5.5 nM; Ki [6]: 0.3 nM

Question: How did the EC50 [18] turn out when `C=CC[N+]1(C)CC[C@]2(C)c3cc(O)ccc3C[C@@H]1[C@@H]2C` (some centres undefined) was run?
Answer: 268 nM

Question: And the Emax [19]?
Answer: 27.3%

Question: What about the Ki (Mu-type opioid receptor [20]) of the same compound?
Answer: 56.4 nM

Question: And the Ki [21]?
Answer: 10.3 nM

Question: With `CCCCC(=N)NCCCCCNC(=O)[C@H](CC(C)C)NC(=O)CNC(=O)[C@@]1(c2ccccc2)C[C@H]1CN1CC[C@]2(C)c3cc(O)ccc3C[C@@H]1[C@@H]2C` as the compound, how does the Ratio Ki (Homo sapiens [22]) read?
Answer: 375

Question: And the Ki [23]?
Answer: 6.7 nM

Question: What about the ED50 (Mus musculus [24]) of the same compound?
Answer: 0.88 mg/kg

Question: What about the Ratio Ki (Homo sapiens [25]) of the same compound?
Answer: 408

Question: With `C[C@H]1[C@H]2Cc3ccc(O)cc3[C@@]1(C)CCN2CCCC#N` as the compound, how does the ED50 (Mus musculus [1]) read?
Answer: 0.01 mg/kg

Question: What about the ED50 (Mus musculus [2]) of the same compound?
Answer: 1 mg/kg

Question: And the Ki (Mu-type opioid receptor [3])?
Answer: 23 nM

Question: What about the Ki [4] of the same compound?
Answer: 5.8 nM

Question: What about the ED50 (Mus musculus [5]) of the same compound?
Answer: 0.4 mg/kg

Question: And the Ki [6]?
Answer: 0.4 nM

Question: Which results are given for `C[C@H]1[C@H]2Cc3cc4sc(N)nc4cc3[C@@]1(C)CCN2CC1CCC1`?
Answer: Ki [11]: 93 nM; Ki [12]: 0.49 nM; Ki (Mu-type opioid receptor [13]): 8.3 nM

Question: `C[C@H]1[C@H]2C(=O)c3ccc(O)cc3[C@@]1(C)CCN2CC1CCCO1` (some centres undefined) was tested. Which Ki [23] did it give?
Answer: 720 nM

Question: And the Ki [9]?
Answer: > 10000 nM

Question: And the Ki (Mu-type opioid receptor [10])?
Answer: 2900 nM

Question: What does the source list for `C[C@H]1[C@H]2Cc3ccc(O)cc3[C@@]1(C)CC[N+]2(C)CC1CC1` (some centres undefined)?
Answer: EC50 [18]: 77.3 nM; Emax [19]: 50%; Ki (Mu-type opioid receptor [20]): 23 nM; Ki [21]: 4.33 nM

Question: With `CCC12CCN(CC3CC3)C(C(=O)c3ccc(NC=O)cc31)C2C` (racemic) as the compound, how does the Ki (Mu-type opioid receptor [15]) read?
Answer: 6.1 nM

Question: How did the Ki [23] turn out when `C[C@H]1[C@H]2Cc3ccc(O)cc3[C@@]1(C)CCN2C[C@@H]1C[C@@]1(CN1CCCCC1)c1ccccc1` was run?
Answer: 179 nM

Question: And the Ki (Mu-type opioid receptor [10])?
Answer: 45 nM

Question: Which Ki [23] does the source give for `C[C@H]1[C@H]2Cc3ccc(O)cc3[C@@]1(C)CCN2C[C@@H]1C[C@@]1(C(=O)NCc1ccccc1)c1ccccc1` here?
Answer: 35 nM

Question: With `CC1C2Cc3ccc(O)cc3C1(C)CCN2CC1CC1` (racemic) as the compound, how does the Ki [7] read?
Answer: 1.1 nM

Question: What about the Ki [8] of the same compound?
Answer: 0.18 nM

Question: What does the source list for `CCCCC(=N)NCCCCCCNC(=O)[C@H](CC(C)C)NC(=O)CNC(=O)[C@@]1(c2ccccc2)C[C@H]1CN1CC[C@]2(C)c3cc(O)ccc3C[C@@H]1[C@@H]2C`?
Answer: Ratio Ki (Homo sapiens [22]): 408; Ki [23]: 5.3 nM; ED50 (Mus musculus [24]): 1.1 mg/kg; Ratio Ki (Homo sapiens [25]): 424

Question: `CC1C2Cc3ccc(NC=O)cc3C1(C)CCN2CC1CC1` (racemic) was tested. Which Ki (Mu-type opioid receptor [15]) did it give?
Answer: 1.9 nM

Question: How did the ED50 (Mus musculus [26]) turn out when `C[C@H]1[C@H]2Cc3ccc(O)cc3[C@@]1(C)CCN2CCCCCCO` was run?
Answer: 1.9 mg/kg
